From the NIST ThermoML archive (doi:10.1016/j.jct.2011.10.014)
Numbers after ± are expanded uncertainties.

Settings: 101.33 kPa, Crystal, Vacuum adiabatic calorimetry

O=C([O-])[O-].[Pb+2] [lead(II) carbonate]
molar entropy (5 K): 0.0215 ± 0.015 J/K/mol | molar entropy (10 K): 0.2771 ± 0.018 J/K/mol | molar entropy (15 K): 1.17 ± 0.027 J/K/mol | molar entropy (20 K): 2.745 ± 0.038 J/K/mol | molar entropy (25 K): 4.823 ± 0.048 J/K/mol | molar entropy (30 K): 7.25 ± 0.082 J/K/mol | molar entropy (35 K): 9.921 ± 0.09 J/K/mol | molar entropy (40 K): 12.76 ± 0.1 J/K/mol | molar entropy (45 K): 15.72 ± 0.11 J/K/mol | molar entropy (50 K): 18.76 ± 0.12 J/K/mol | molar entropy (55 K): 21.83 ± 0.13 J/K/mol | molar entropy (60 K): 24.93 ± 0.14 J/K/mol | molar entropy (65 K): 28.02 ± 0.14 J/K/mol | molar entropy (70 K): 31.09 ± 0.15 J/K/mol | molar entropy (75 K): 34.13 ± 0.16 J/K/mol | molar entropy (80 K): 37.12 ± 0.17 J/K/mol | molar entropy (85 K): 40.07 ± 0.18 J/K/mol | molar entropy (90 K): 42.97 ± 0.36 J/K/mol | molar entropy (95 K): 45.81 ± 0.37 J/K/mol | molar entropy (100 K): 48.59 ± 0.37 J/K/mol | molar entropy (110 K): 53.97 ± 0.38 J/K/mol | molar entropy (120 K): 59.11 ± 0.39 J/K/mol | molar entropy (130 K): 64.03 ± 0.4 J/K/mol | molar entropy (140 K): 68.74 ± 0.4 J/K/mol | molar entropy (150 K): 73.25 ± 0.41 J/K/mol | molar entropy (160 K): 77.6 ± 0.42 J/K/mol | molar entropy (170 K): 81.78 ± 0.42 J/K/mol | molar entropy (180 K): 85.81 ± 0.43 J/K/mol | molar entropy (190 K): 89.7 ± 0.43 J/K/mol | molar entropy (200 K): 93.46 ± 0.44 J/K/mol | molar entropy (210 K): 97.11 ± 0.45 J/K/mol | molar entropy (220 K): 100.6 ± 0.5 J/K/mol | molar entropy (230 K): 104.1 ± 0.5 J/K/mol | molar entropy (240 K): 107.4 ± 0.5 J/K/mol | molar entropy (250 K): 110.7 ± 0.5 J/K/mol | molar entropy (260 K): 113.9 ± 0.5 J/K/mol | molar entropy (270 K): 117 ± 0.5 J/K/mol | molar entropy (273.15 K): 118 ± 0.5 J/K/mol | molar entropy (280 K): 120.1 ± 0.5 J/K/mol | molar entropy (290 K): 123 ± 0.5 J/K/mol | molar entropy (298.15 K): 125.4 ± 0.7 J/K/mol | molar entropy (300 K): 126 ± 0.5 J/K/mol | molar entropy (310 K): 128.9 ± 0.5 J/K/mol | molar entropy (320 K): 131.7 ± 0.5 J/K/mol
